Experimental data as given in US9937194B1, “Compounds and methods for treating inflammatory diseases” (priority 2009, dated 2018).
In brackets after ≈: the same amount, converted by molar mass.

How the values were obtained:
E. coli ATCC 25922 = assay: MIC; format: cell-based; conditions: in µg/mL
S. aureus MRSA 33591 = assay: MIC; format: cell-based
[1] = system: N. gonorrhoeae ATCC 49226; assay: MIC; format: cell-based; parameters: unit not given beside the values
E. faecium ATCC 19434 = assay: MIC; format: cell-based
[2] = system: S. aureus 96:11480 (MLS-I); assay: MIC; format: cell-based; parameters: unit not given beside the values
H. influenzae ATCC 49247 = assay: MIC; format: cell-based
HDAC activity = assay: H2O2-induced reduction of HDAC activity in PMA-differentiated U937 cells; format: cell-based, human; conditions: test concentration not given; bracketed second value not explained
Experimental: In cell HDAC assay. Cells are incubated with Fluor de Lys™ substrate for 1 hr before lyses. Total HDAC activity from whole cell extracts is measured using the HDAC Fluorimetric Assay/Drug Discovery Kit (BIOMOL® International, Inc., Plymouth Meeting, Pa.).
HDAC expression: In cell HDAC activity assay: U937 is differentiated to macrophage type cells by PMA for 3 days. HDAC fluorescent substrate (Biomol) is added before exposure of oxidative stress (H2O2, 200 μM) or Tobacco smoke conditioned medium for 4 hrs. HDAC activity is measured (Biomol kit). Compounds at different concentrations are treated 20 min before oxidative stress treatment.
PMA-differentiated macrophage-like cells are pretreated with compounds described herein for 20 min. After H2O2 (200 μM) stimulation for 4 hrs, HDAC activity is assayed. Data are expressed as fold changes against positive control treated with H2O2 only. Values represent means of four experiments±SEM.

S. pneumoniae 303 (ErmB) = assay: MIC; format: cell-based
[3] = system: S. typhimurium ATCC 14028; assay: MIC; format: cell-based; conditions: in µg/mL
MMP9 = assay: PMA-induced MMP9 expression in U937 cells (gelatin zymography); format: cell-based, human; conditions: test concentration not given; bracketed second value not explained
Experimental: Zymography. MMP9 enzyme activity is measured by gelatin zymography. 5 μl of supernatants were diluted with 5 μl Laemli sample buffer (Bio-Rad) and are loaded on a Novex® 10% Zymogram (Gelatin) gel (Invitrogen). After electrophoresis (90 min, 125 V, 35 mA, 5 W) gels are incubated with 1× Novex® zymogram renaturing buffer (Invitrogen) for 30 min at room temperature with gentle agitation. Gels are then rinsed in 1× Novex® zymogram developing buffer (Invitrogen) for 30 min at room temperature with gentle agitation prior to overnight incubation in the developing buffer at 37° C. After incubation the gels are stained using the colloidal blue staining kit (Invitrogen) with buffer containing 20% methanol and 70% distilled water to visualize the zymogen bands. Relevant band intensities are quantified by densitometric analysis using the UVP GelDoc-It system.
Effects of compounds on PMA-induced MMP9 expression in U937 cells. U937 cells are pretreated with compounds described herein for 1 hr, followed by PMA (50 ng/ml) treatment for 48 hrs. After 48 hrs supernatants are collected for zymography. MMP9 enzyme activity is measured by gelatin zymography. Data are expressed as fold changes against positive control treated with PMA only. Values represent means of three experiments±SEM.

TNFα = assay: LPS-induced TNFα release in PMA-differentiated U937 cells (ELISA); format: cell-based, human; conditions: test concentration not given
Experimental: (§1) Cytokine ELISA. LPS-induced IL-8, TNFα concentrations and TNFα-induced IL-8 concentrations are determined by sandwich ELISA according to the manufacturer's instructions (R&D Systems Europe). IC50 values for dexamethasone on IL-8 production are calculated using the computer program Prism 4.0 (GraphPad Software Inc., San Diego, Calif.) as a marker for steroid sensitivity.
(§2) Effects of compounds on LPS-induced IL-8 and TNFα release in PMA-differentiated U937 cells. PMA-differentiated macrophage-like cells are pretreated with compounds described herein for 1 hr, followed by LPS (100 ng/ml) stimulation for 4 hrs. LPS-induced IL-8 and TNFα release is evaluated by ELISA. Values represent means of three experiments±SEM.

[4] = format: cell-based; conditions: test concentration not given
Experimental: The human monocytic cell line U937 and the human type II alveolar epithelial carcinoma cell line A549 were obtained from the American Type Culture Collection (ATCC, Rockville, Md.). PBMCs from COPD patients were obtained in Brompton hospital and separated by AccuSPIN (Sigma-Aldrich, Poole, UK). Cells were cultured in complete growth medium (Sigma-Aldrich) (RPMI 1640 for U937, PBMCs, and Dulbecco's modified essential medium (DMEM) for A549) supplemented with 10% fetal bovine serum (FBS) and 1% L-glutamine at 37° C. in a humidified atmosphere with 5% CO2. U937 were differentiated into an adherent macrophage-like morphology by exposure to PMA (50 or 100 ng/ml) for 48 hrs in complete growth medium. Cell viability was assessed microscopically by trypan blue staining. Cell toxicity was determined by MTT assay as needed. This study was approved by the ethics committee of the Royal Brompton Hospitals, and all subjects gave written informed consent.

S. pneumoniae ATCC 49619 = assay: MIC; format: cell-based
K. pneumonia 13883 = assay: MIC; format: cell-based; conditions: in µg/mL
[5] = system: S. aureus ATCC 29213 (MSSA) MLS-S; assay: MIC; format: cell-based
IL-8 = assay: LPS-induced IL-8 release in PMA-differentiated U937 cells (ELISA); format: cell-based, human; conditions: test concentration not given
Experimental: as §1, §2

S. pneumoniae 163 (MefA) = assay: MIC; format: cell-based; conditions: in µg/mL
P. aeruginosa ATCC 27853 = assay: MIC; format: cell-based
H. influenzae LC002 = assay: MIC; format: cell-based
S. pyogenes ATCC 19615 = assay: MIC; format: cell-based; conditions: in µg/mL

| SMILES | MIC E. coli ATCC 25922 (E. coli ATCC 25922) | MIC S. aureus MRSA 33591 (S. aureus MRSA 33591) [µg/mL] | MIC N. gonorrhoeae ATCC 49226 [1] | MIC E. faecium ATCC 19434 (E. faecium ATCC 19434) [µg/mL] | MIC S. aureus 96:11480 (MLS-I) [2] | MIC H. influenzae ATCC 49247 (H. influenzae ATCC 49247) [µg/mL] | restoration of H2O2-reduced HDAC activity (%) (HDAC activity) | MIC S. pneumoniae 303 (ErmB) (S. pneumoniae 303 (ErmB)) [µg/mL] | MIC S. typhimurium ATCC 14028 [3] | MMP9 inhibition (%) (MMP9) | TNFα inhibition (%) (TNFα) | Cell Toxicity (% cell death) [4] [%] | MIC S. pneumoniae ATCC 49619 (S. pneumoniae ATCC 49619) [µg/mL] | MIC K. pneumonia 13883 (K. pneumonia 13883) | MIC S. aureus ATCC 29213 (MSSA) MLS-S [5] [µg/mL] | IL-8 inhibition (%) (IL-8) | MIC S. pneumoniae 163 (MefA) (S. pneumoniae 163 (MefA)) | MIC P. aeruginosa ATCC 27853 (P. aeruginosa ATCC 27853) [µg/mL] | MIC H. influenzae LC002 (H. influenzae LC002) [µg/mL] | MIC S. pyogenes ATCC 19615 (S. pyogenes ATCC 19615) |
| --- | --- | --- | --- | --- | --- | --- | --- | --- | --- | --- | --- | --- | --- | --- | --- | --- | --- | --- | --- | --- |
| CCC1OC(=O)C(C)(F)C(=O)C(C)C(OC2OC(C)CC(N(C)C)C2O)C(C)(OC)CC(C)C(=O)C(C)C2N(CCCCn3cc(Cn4nnc5ccccc54)nn3)C(=O)OC12C (stereo not shown) [Example 22] | >64 | > 64 | 0.25 | ≤ 0.125 | ≤0.125 | 2 (≈ 2.26 µM) | 22 (29) % | ≤ 0.125 | 64 | 38 (23) % | 48 | 11 | ≤ 0.125 | >64 | ≤ 0.125 | 76 | 64 | > 64 | – | – |
| CC[C@H]1OC(=O)[C@H](C)C(=O)[C@H](C)[C@@H](O[C@@H]2O[C@H](C)[C@@H](OC(C)=O)[C@H](NC(C)=O)[C@H]2OC(C)=O)[C@@](C)(OC)C[C@@H](C)C(=O)[C@H](C)[C@H]2N(CCCCn3cc(-c4ccccn4)nn3)C(=O)O[C@]12C [Example 23] | – | > 64 | – | 16 (≈ 17.3 µM) | >64 | > 64 | −13% | 16 (≈ 17.3 µM) | – | 32 (31) % | 76 | 9 | 4 (≈ 4.31 µM) | >64 | > 64 | 13 | 2 | – | > 64 | 16 |
